For data set [1], the target named is T1, mAChR M4 (Homo sapiens, UniProt P08173).
T1 construct: expressed in transfected cells; host or cells: CHO-K1 cells stably transfected with M4 cDNA and chimeric G-protein Gqi5
T1 sequence (P08173 1-479): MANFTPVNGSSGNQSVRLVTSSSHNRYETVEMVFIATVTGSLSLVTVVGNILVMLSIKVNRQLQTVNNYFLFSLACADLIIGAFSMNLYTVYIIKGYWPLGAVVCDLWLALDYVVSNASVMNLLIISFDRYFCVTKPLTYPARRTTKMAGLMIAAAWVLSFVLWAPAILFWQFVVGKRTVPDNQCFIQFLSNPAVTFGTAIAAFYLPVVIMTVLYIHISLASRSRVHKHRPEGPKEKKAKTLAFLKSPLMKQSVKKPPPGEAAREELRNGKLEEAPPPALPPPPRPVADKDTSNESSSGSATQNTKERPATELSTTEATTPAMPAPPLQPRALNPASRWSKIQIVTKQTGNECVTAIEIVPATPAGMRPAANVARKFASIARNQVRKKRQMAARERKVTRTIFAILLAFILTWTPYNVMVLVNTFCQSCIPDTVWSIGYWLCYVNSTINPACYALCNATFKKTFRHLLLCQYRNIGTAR
Kind of data set: mAChR M4 cell-based functional assay (calcium mobilization, potentiation of EC20 acetylcholine response). The following applies: for Emax at 30 µM: % ACh maximum at 30 μM; for EC50: mAChR M4 cell-based functional assay, >10,000 estimated for low potency compounds without plateau, read-out: EC50.

The conditions of data set [2]: hepatotoxicity of AChE inhibitors such as tacrine; cited from earlier work.
Data set [3] concerns animal models. The following applies: cited from earlier work.
In data set [4] the test system is Alzheimer's disease patients. The settings on record: cited from earlier work.

Here are results for 38 compounds from patent US9868746B2, “Substituted 5-aminothieno[2,3-C]pyridazine-6-carboxamide analogs as positive allosteric modulators of the muscarinic acetylcholine receptor M4” (Vanderbilt University, priority 2012, dated 2018).

Regarding `Cc1nnc2sc(C(=O)NCc3ccc(-c4cc(C)c5[nH]ncc5c4)cc3)c(N)c2c1C` [Example B474], in data set [1], the maximal response (Emax) (in general, the size of the effect at its maximum, as opposed to the concentration needed) at 30 µM turned out to be 82% and the EC50 (in general, the concentration needed to bring the measured effect to its halfway point) is 460 nM.
For `COc1ccc(CNC(=O)c2sc3nnc(C)c(C)c3c2N)c(F)c1` [Example B475], in data set [1], the Emax at 30 µM was found to be 61% and the half-maximal effective concentration (EC50) is 24 nM.
On to `Cc1nnc2sc(C(=O)NCc3ccc([S+]([O-])C(F)(F)F)cc3)c(N)c2c1C` (centres unmarked) [Example B476], for which, in data set [1], the maximum response (Emax) at 30 µM was 66% and the half-maximal effective concentration (EC50) was 1600 nM.
The corresponding values for `[2H]C([2H])(NC(=O)c1sc2nnc(C)c(C)c2c1N)c1ccc(S(=O)(=O)C(F)F)cc1` [Example B477] are 74% and 23 nM.
For the compound `Cc1nnc2sc(C(=O)NCc3ccc([S+]([O-])C(F)F)cc3)c(N)c2c1C` (centres unmarked) [Example B478], in data set [1], the maximal response (Emax) at 30 µM was 71% and the EC50 is 23 nM.
For the compound `Cc1nnc2sc(C(=O)NC3CN(c4cccnc4)C3)c(N)c2c1C` [Example B479], in data set [1], the Emax at 30 µM is 67% and the EC50 is 12 nM.
For `Cc1nnc2sc(C(=O)NCc3ccc(OC(F)F)cn3)c(N)c2c1C` [Example B480], in data set [1], the Emax at 30 µM is 74% and the EC50 is more than 10000 nM.
Consider `Cc1nnc2sc(C(=O)NC3CN(c4ccccc4)C3)c(N)c2c1C` [Example B481], for which, in data set [1], the Emax at 30 µM is 62% and the concentration for a half-maximal effect (EC50) is 12 nM.
In the case of `COc1ccc(CNC(=O)c2sc3nnc(C)c(C)c3c2N)cc1Br` [Example B482], in data set [1], the maximal response (Emax) at 30 µM turned out to be 67% and the EC50 was 87 nM.
With `Cc1nnc2sc(C(=O)NCc3ccc(-n4ccccc4=O)c(F)c3)c(N)c2c1C` [Example B483], in data set [1], the maximal response (Emax) at 30 µM turned out to be 69% and the half-maximal effective concentration (EC50) is 47 nM.
Turning to `Cc1cc(-c2ccc(CNC(=O)c3sc4nnc(C)c(C)c4c3N)cc2)cnc1F` [Example B484], in data set [1], the Emax at 30 µM stood at 63% and the EC50 was 110 nM.
For `COc1ncc(-c2ccc(CNC(=O)c3sc4nnc(C)c(C)c4c3N)cc2)cn1` [Example B485], in data set [1], the Emax at 30 µM was determined as 58% and the EC50 was 48 nM.
The corresponding values for `COc1ccc(-c2ccc(CNC(=O)c3sc4nnc(C)c(C)c4c3N)cc2)cn1` [Example B486] are 61% and 230 nM.
The corresponding values for `Cc1nnc2sc(C(=O)NCc3ccc(-c4cncc(F)c4)cc3)c(N)c2c1C` [Example B487] are 71% and 37 nM.
As to `COc1cncc(-c2ccc(CNC(=O)c3sc4nnc(C)c(C)c4c3N)cc2)c1` [Example B488], in data set [1], the maximum response (Emax) at 30 µM came out at 76% and the EC50 is 49 nM.
The corresponding values for `Cc1nnc2sc(C(=O)NCc3ccc(S(=O)(=O)C(F)F)c(Cl)c3)c(N)c2c1C` [Example B489] are 73% and 35 nM.
Consider `Cc1nnc2sc(C(=O)NCc3ccc(-n4ccnc4)cc3)c(N)c2c1C` [Example B490], for which, in data set [1], the maximum response (Emax) at 30 µM was 61% and the concentration giving a half-maximal response (EC50) is 20 nM.
Take `Cc1nnc2sc(C(=O)NCc3ccc(CN4CCCC4)cc3)c(N)c2c1C` [Example B492]: in data set [1], the maximum response (Emax) at 30 µM turned out to be 76% and the EC50 is 38 nM.
In the case of `Cc1nnc2sc(C(=O)NCc3ccc(CN4CCSCC4)cc3)c(N)c2c1C` [Example B493], in data set [1], the Emax at 30 µM stood at 68% and the concentration for a half-maximal effect (EC50) is 82 nM.
Consider `Cc1nnc2sc(C(=O)NCc3ccc(-c4ccccc4O)cc3)c(N)c2c1C` [Example B494], for which, in data set [1], the maximal effect (Emax) at 30 µM was determined as 75% and the concentration giving a half-maximal response (EC50) is 190 nM.
For `Cc1nnc2sc(C(=O)NCc3ccc(-c4ccc(F)nc4F)cc3)c(N)c2c1C` [Example B495], in that order: 72% and 210 nM.
`Cc1nnc2sc(C(=O)NCc3ccc(-c4ccc5nccnc5c4)cc3)c(N)c2c1C` [Example B496]: in data set [1], the Emax at 30 µM worked out at 66% and the half-maximal effective concentration (EC50) is 250 nM.
Regarding `Cc1nnc2sc(C(=O)NCc3ccc(-c4cnc5ccccc5c4)cc3)c(N)c2c1C` [Example B497], in data set [1], the maximal response (Emax) at 30 µM is 46% and the EC50 is 710 nM.
The corresponding values for `Cc1cc(F)ncc1-c1ccc(CNC(=O)c2sc3nnc(C)c(C)c3c2N)cc1` [Example B498] are 82% and 330 nM.
Take `Cc1cncc(-c2ccc(CNC(=O)c3sc4nnc(C)c(C)c4c3N)cc2)c1` [Example B499]: in data set [1], the maximum response (Emax) at 30 µM came to 71% and the EC50 is 200 nM.
For the compound `Cc1nnc2sc(C(=O)NCc3ccc(-c4cc(O)ccc4Cl)cc3)c(N)c2c1C` [Example B500], in data set [1], the Emax at 30 µM is 72% and the EC50 was 1800 nM.
The corresponding values for `Cc1nnc2sc(C(=O)NCc3ccc(-c4ccc5c(c4)OCO5)cc3)c(N)c2c1C` [Example B501] are 44% and 990 nM.
On to `Cc1nnc2sc(C(=O)NCc3ccc(-c4ccsc4)cc3)c(N)c2c1C` [Example B502], for which, in data set [1], the maximal response (Emax) at 30 µM came to 66% and the concentration giving a half-maximal response (EC50) is 580 nM.
For the compound `Cc1nnc2sc(C(=O)NCc3ccc(-c4cncc5ccccc45)cc3)c(N)c2c1C` [Example B503], in data set [1], the Emax at 30 µM came out at 56% and the EC50 is 1100 nM.
For `Cc1nnc2sc(C(=O)NCc3ccc(CN4CCCCC4)cc3)c(N)c2c1C` [Example B504], in that order: 68% and 80 nM.
Consider `Cc1nnc2sc(C(=O)NCc3ccc(S(=O)(=O)c4ccccc4)cc3)c(N)c2c1C` [Example B505], for which, in data set [1], the maximal effect (Emax) at 30 µM stood at 63% and the EC50 is 110 nM.
As for `Cc1nnc2sc(C(=O)NCc3ccc(-n4cccn4)cc3)c(N)c2c1C` [Example B506], in data set [1], the Emax at 30 µM amounted to 70% and the EC50 was 150 nM.
With `Cc1nnc2sc(C(=O)NCc3ccc(S(=O)(=O)C(F)F)cc3Cl)c(N)c2c1C` [Example B507], in data set [1], the Emax at 30 µM was 66% and the EC50 was 510 nM.
The corresponding values for `COc1ccc(CNC(=O)c2sc3nnc(C)c(C)c3c2N)nc1` [Example B508] are 54% and 770 nM.
The corresponding values for `Cc1nnc2sc(C(=O)NCc3ccc(F)cn3)c(N)c2c1C` [Example B509] are 59% and 1400 nM.
For the compound `Cc1nnc2sc(C(=O)NCc3ccc(-n4cncn4)cc3)c(N)c2c1C` [Example B511], in data set [1], the Emax at 30 µM turned out to be 67% and the half-maximal effective concentration (EC50) is 78 nM.
As for `Nc1c2c(nc3ccccc13)CCCC2` [tacrine], in data set [2], the “elevated liver transaminases observed in patients” value is reported as “about 30 % of patients”.
Consider `CCCCCCOc1nsnc1C1=CCCN(C)C1` [xanomeline], for which, in data set [3] (in vivo), the “catalepsy in animal models” value is on record as “without causing catalepsy”. For the same compound, the “activity in animal models with similar profiles to known antipsychotic drugs” value in data set [3] (muscarinic agonist, Bymaster 1998, 1999, Shannon 1999, 2000) is “active in animal models”. Besides, in data set [4] (Bodick 1997), the “psychotic behavioral symptoms such as delusions, suspiciousness, vocal outbursts, and hallucinations” value is recorded as “reduce psychotic behavioral symptoms”. Also, the “treatment induced side effects” value in data set [4] is reported as “gastrointestinal effects”.
